Experimental data taken from patent US8598365B2, “Herbicides” (Syngenta Limited, priority 2007, dated 2013).

The compounds below were run on Alopecurus myosuroides (ALOMY) (assay: Example B pre-emergence herbicidal activity). Conditions: 312 h, rate 250 g/ha, evaluated after 13 days, read-out: Pre-Emergence Activity ALOMY (100=total damage to plant; 0=no damage to plant).
Assay type: in vivo
Summary of the method: (§1)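 Damage was rated 13 days after treatment on a 0 (no damage) to 100 (total damage) scale. Pots of soil-sown plants had been sprayed one day after sowing for pre-emergence or at 8 days for post-emergence. Spray: acetone/water (50:50), 0.5% Tween 20.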

Point of comparison: CCc1sc(-c2ccc(Cl)cc2)nc1C1=C(OC(=O)C2CC2)C2CCC(C2)C1=O (centres unmarked) [Compound P1], pest or weed control at 250 g/ha 80%. Against it:
- CCc1sc(-c2ccc(C)cc2)nc1C1=C(OC(C)=O)[C@H]2CC[C@H](C2)C1=O [Compound P15] — higher, 90%
- CCc1sc(-c2ccc(Cl)cc2)nc1C1=C(OC(=C(C#N)C#N)C(F)(F)F)[C@@H]2CC[C@@H](C2)C1=O [Compound P9] — higher, 90%
- Cc1cc(Cl)ncc1-c1nc(C2C(=O)[C@@H]3CC[C@@H](C3)C2=O)c(C)s1 (some centres unmarked) [Compound T75] — lower, 0%
- CC(=O)OC1=C(c2nc(-c3ccc(Br)cc3C)sc2C)C(=O)[C@H]2CC[C@@H]1C2 [Compound P12] — lower, 30%

Each compound was assayed on Amaranthus retoflexus (AMARE) (assay: Example B pre-emergence herbicidal activity). Conditions: Amaranthus retroflexus, 312 h, rate 250 g/ha, evaluated after 13 days, read-out: Pre-Emergence Activity AMARE (100=total damage to plant; 0=no damage to plant).
Assay type: in vivo
Summary of the method: as §1

Point of comparison: CCc1sc(-c2ccc(Cl)cc2)nc1C1=C(OC(=O)C2CC2)C2CCC(C2)C1=O (centres unmarked) [Compound P1], pest or weed control at 250 g/ha 0%. Against it:
- CCc1sc(-c2ccc(C)cc2)nc1C1=C(OC(C)=O)[C@H]2CC[C@H](C2)C1=O [Compound P15] — the same, 0%
- CCc1sc(-c2ccc(Cl)cc2)nc1C1=C(OC(=C(C#N)C#N)C(F)(F)F)[C@@H]2CC[C@@H](C2)C1=O [Compound P9] — the same, 0%
- Cc1cc(Cl)ncc1-c1nc(C2C(=O)[C@@H]3CC[C@@H](C3)C2=O)c(C)s1 (some centres unmarked) [Compound T75] — the same, 0%
- CC(=O)OC1=C(c2nc(-c3ccc(Br)cc3C)sc2C)C(=O)[C@H]2CC[C@@H]1C2 [Compound P12] — the same, 0%

Each compound was assayed on Avena fatua (AVEFA) (assay: Example B pre-emergence herbicidal activity). Conditions: 312 h, rate 250 g/ha, evaluated after 13 days, read-out: Pre-Emergence Activity AVEFA (100=total damage to plant; 0=no damage to plant).
Assay type: in vivo
Summary of the method: as §1

Point of comparison: CCc1sc(-c2ccc(Cl)cc2)nc1C1=C(OC(=O)C2CC2)C2CCC(C2)C1=O (centres unmarked) [Compound P1], pest or weed control at 250 g/ha 0%. Against it:
- CCc1sc(-c2ccc(C)cc2)nc1C1=C(OC(C)=O)[C@H]2CC[C@H](C2)C1=O [Compound P15] — higher, 60%
- CCc1sc(-c2ccc(Cl)cc2)nc1C1=C(OC(=C(C#N)C#N)C(F)(F)F)[C@@H]2CC[C@@H](C2)C1=O [Compound P9] — higher, 100%
- Cc1cc(Cl)ncc1-c1nc(C2C(=O)[C@@H]3CC[C@@H](C3)C2=O)c(C)s1 (some centres unmarked) [Compound T75] — higher, 20%
- CC(=O)OC1=C(c2nc(-c3ccc(Br)cc3C)sc2C)C(=O)[C@H]2CC[C@@H]1C2 [Compound P12] — higher, 20%

The compounds below were run on Echinochloa crus-galli (ECHCG) (assay: Example B pre-emergence herbicidal activity). Conditions: 312 h, rate 250 g/ha, evaluated after 13 days, read-out: Pre-Emergence Activity ECHCG (100=total damage to plant; 0=no damage to plant).
Assay type: in vivo
Summary of the method: as §1

Point of comparison: CCc1sc(-c2ccc(C)cc2)nc1C1=C(OC(C)=O)[C@H]2CC[C@H](C2)C1=O [Compound P15], pest or weed control at 250 g/ha 100%. Against it:
- CCc1sc(-c2ccc(Cl)cc2)nc1C1=C(OC(=C(C#N)C#N)C(F)(F)F)[C@@H]2CC[C@@H](C2)C1=O [Compound P9] — lower, 90%
- Cc1cc(Cl)ncc1-c1nc(C2C(=O)[C@@H]3CC[C@@H](C3)C2=O)c(C)s1 (some centres unmarked) [Compound T75] — lower, 40%
- CC(=O)OC1=C(c2nc(-c3ccc(Br)cc3C)sc2C)C(=O)[C@H]2CC[C@@H]1C2 [Compound P12] — lower, 20%
- CCc1sc(-c2ccc(Cl)cc2)nc1C1=C(OC(=O)C2CC2)C2CCC(C2)C1=O (centres unmarked) [Compound P1] — the same, 100%

The compounds below were run on Setaria faberi (SETFA) (assay: Example B pre-emergence herbicidal activity). Conditions: 312 h, rate 250 g/ha, evaluated after 13 days, read-out: Pre-Emergence Activity SETFA (100=total damage to plant; 0=no damage to plant).
Assay type: in vivo
Summary of the method: as §1

Point of comparison: CCc1sc(-c2ccc(C)cc2)nc1C1=C(OC(C)=O)[C@H]2CC[C@H](C2)C1=O [Compound P15], pest or weed control at 250 g/ha 90%. Against it:
- CCc1sc(-c2ccc(Cl)cc2)nc1C1=C(OC(=C(C#N)C#N)C(F)(F)F)[C@@H]2CC[C@@H](C2)C1=O [Compound P9] — higher, 100%
- Cc1cc(Cl)ncc1-c1nc(C2C(=O)[C@@H]3CC[C@@H](C3)C2=O)c(C)s1 (some centres unmarked) [Compound T75] — the same, 90%
- CC(=O)OC1=C(c2nc(-c3ccc(Br)cc3C)sc2C)C(=O)[C@H]2CC[C@@H]1C2 [Compound P12] — higher, 100%
- CCc1sc(-c2ccc(Cl)cc2)nc1C1=C(OC(=O)C2CC2)C2CCC(C2)C1=O (centres unmarked) [Compound P1] — higher, 100%

The compounds below were run on Alopecurus myosuroides (ALOMY) (assay: Example B post-emergence herbicidal activity). Conditions: 312 h, rate 250 g/ha, evaluated after 13 days, read-out: Post-emergence activity ALOMY (100=total damage to plant; 0=no damage to plant).
Assay type: in vivo
Summary of the method: as §1

Point of comparison: CCc1sc(-c2ccc(C)cc2)nc1C1=C(OC(C)=O)[C@H]2CC[C@H](C2)C1=O [Compound P15], pest or weed control at 250 g/ha 100%. Against it:
- CCc1sc(-c2ccc(Cl)cc2)nc1C1=C(OC(=C(C#N)C#N)C(F)(F)F)[C@@H]2CC[C@@H](C2)C1=O [Compound P9] — the same, 100%
- Cc1cc(Cl)ncc1-c1nc(C2C(=O)[C@@H]3CC[C@@H](C3)C2=O)c(C)s1 (some centres unmarked) [Compound T75] — lower, 20%
- CC(=O)OC1=C(c2nc(-c3ccc(Br)cc3C)sc2C)C(=O)[C@H]2CC[C@@H]1C2 [Compound P12] — the same, 100%
- CCc1sc(-c2ccc(Cl)cc2)nc1C1=C(OC(=O)C2CC2)C2CCC(C2)C1=O (centres unmarked) [Compound P1] — the same, 100%

What follows are compounds tested on Amaranthus retoflexus (AMARE) (assay: Example B post-emergence herbicidal activity). Conditions: Amaranthus retroflexus, 312 h, rate 250 g/ha, evaluated after 13 days, read-out: Post-emergence activity AMARE (100=total damage to plant; 0=no damage to plant).
Assay type: in vivo
Summary of the method: as §1

Point of comparison: Cc1cc(Cl)ncc1-c1nc(C2C(=O)[C@@H]3CC[C@@H](C3)C2=O)c(C)s1 (some centres unmarked) [Compound T75], pest or weed control at 250 g/ha 0%. Against it:
- CCc1sc(-c2ccc(C)cc2)nc1C1=C(OC(C)=O)[C@H]2CC[C@H](C2)C1=O [Compound P15] — the same, 0%
- CCc1sc(-c2ccc(Cl)cc2)nc1C1=C(OC(=C(C#N)C#N)C(F)(F)F)[C@@H]2CC[C@@H](C2)C1=O [Compound P9] — the same, 0%
- CC(=O)OC1=C(c2nc(-c3ccc(Br)cc3C)sc2C)C(=O)[C@H]2CC[C@@H]1C2 [Compound P12] — the same, 0%
- CCc1sc(-c2ccc(Cl)cc2)nc1C1=C(OC(=O)C2CC2)C2CCC(C2)C1=O (centres unmarked) [Compound P1] — the same, 0%

These compounds were tested on Avena fatua (AVEFA) (assay: Example B post-emergence herbicidal activity). Conditions: 312 h, rate 250 g/ha, evaluated after 13 days, read-out: Post-emergence activity AVEFA (100=total damage to plant; 0=no damage to plant).
Assay type: in vivo
Summary of the method: as §1

Point of comparison: CC(=O)OC1=C(c2nc(-c3ccc(Br)cc3C)sc2C)C(=O)[C@H]2CC[C@@H]1C2 [Compound P12], pest or weed control at 250 g/ha 90%. Against it:
- CCc1sc(-c2ccc(C)cc2)nc1C1=C(OC(C)=O)[C@H]2CC[C@H](C2)C1=O [Compound P15] — the same, 90%
- CCc1sc(-c2ccc(Cl)cc2)nc1C1=C(OC(=C(C#N)C#N)C(F)(F)F)[C@@H]2CC[C@@H](C2)C1=O [Compound P9] — higher, 100%
- Cc1cc(Cl)ncc1-c1nc(C2C(=O)[C@@H]3CC[C@@H](C3)C2=O)c(C)s1 (some centres unmarked) [Compound T75] — lower, 0%
- CCc1sc(-c2ccc(Cl)cc2)nc1C1=C(OC(=O)C2CC2)C2CCC(C2)C1=O (centres unmarked) [Compound P1] — higher, 100%

These compounds were tested on Echinochloa crus-galli (ECHCG) (assay: Example B post-emergence herbicidal activity). Conditions: 312 h, rate 250 g/ha, evaluated after 13 days, read-out: Post-emergence activity ECHCG (100=total damage to plant; 0=no damage to plant).
Assay type: in vivo
Summary of the method: as §1

Point of comparison: Cc1cc(Cl)ncc1-c1nc(C2C(=O)[C@@H]3CC[C@@H](C3)C2=O)c(C)s1 (some centres unmarked) [Compound T75], pest or weed control at 250 g/ha 70%. Against it:
- CCc1sc(-c2ccc(C)cc2)nc1C1=C(OC(C)=O)[C@H]2CC[C@H](C2)C1=O [Compound P15] — higher, 100%
- CCc1sc(-c2ccc(Cl)cc2)nc1C1=C(OC(=C(C#N)C#N)C(F)(F)F)[C@@H]2CC[C@@H](C2)C1=O [Compound P9] — higher, 100%
- CC(=O)OC1=C(c2nc(-c3ccc(Br)cc3C)sc2C)C(=O)[C@H]2CC[C@@H]1C2 [Compound P12] — higher, 100%
- CCc1sc(-c2ccc(Cl)cc2)nc1C1=C(OC(=O)C2CC2)C2CCC(C2)C1=O (centres unmarked) [Compound P1] — higher, 100%

These compounds were tested on Setaria faberi (SETFA) (assay: Example B post-emergence herbicidal activity). Conditions: 312 h, rate 250 g/ha, evaluated after 13 days, read-out: Post-emergence activity SETFA (100=total damage to plant; 0=no damage to plant).
Assay type: in vivo
Summary of the method: as §1

Point of comparison: CCc1sc(-c2ccc(Cl)cc2)nc1C1=C(OC(=O)C2CC2)C2CCC(C2)C1=O (centres unmarked) [Compound P1], pest or weed control at 250 g/ha 100%. Against it:
- CCc1sc(-c2ccc(C)cc2)nc1C1=C(OC(C)=O)[C@H]2CC[C@H](C2)C1=O [Compound P15] — the same, 100%
- CCc1sc(-c2ccc(Cl)cc2)nc1C1=C(OC(=C(C#N)C#N)C(F)(F)F)[C@@H]2CC[C@@H](C2)C1=O [Compound P9] — the same, 100%
- Cc1cc(Cl)ncc1-c1nc(C2C(=O)[C@@H]3CC[C@@H](C3)C2=O)c(C)s1 (some centres unmarked) [Compound T75] — lower, 90%
- CC(=O)OC1=C(c2nc(-c3ccc(Br)cc3C)sc2C)C(=O)[C@H]2CC[C@@H]1C2 [Compound P12] — the same, 100%
